The record followed here is patent US7709533B2, “Imines as ion channel modulators” (Icagen, Inc., priority 2005, dated 2010).

pIC50: −log10 of the molar value.

The target in the experiment is T1, human intermediate-conductance, calcium-activated K+ channels (h-IK1) (Homo sapiens, UniProt O15554).
T1 construct: expressed in transfected cells; host or cells: CHO-K1 (ATCC CCL-61), kept under G-418 selection
The experiment can be described thus: Rubidium efflux assay (86Rb+ efflux, CHO-K1 cells expressing h-IK1). The class given is cell-based. Particulars: hIK1 in CHO-K1 cells; 86Rb+ efflux stimulated with ionomycin; drug 0.01-30 μM, 6 min preincubation, 10 min efflux; read-out: IK1 Inhibitory Activity. The procedure: CHO-K1 cells (American Type Culture Collection, CCL-61) expressing human intermediate-conductance, calcium-activated K^+ channels (h-IK1) are cultured in Ham's F-12 medium (HyClone) supplemented with 10% heat inactivated fetal bovine serum (Nova-Tech) and 400 μg/mL G-418 (Geneticin, Life Technologies), in an incubator at 37° C. with a humidified atmosphere of 5% CO2. Cells are typically sub-cultured twice per week. When the culture flask reaches 70%-90% confluency, the culture medium is removed, cells are rinsed twice with calcium and magnesium-free Dulbecco's phospate buffed saline (PBS) and a 0.05% trypsin/0.5 mM EDTA in HBSS solution is added until cells begin to round up (typically 2-5 min). Twenty four hours prior to the experiment, cells are removed from the culture flask and resuspended in Ham's F-12 medium supplemented with 10% heat inactivated fetal bovine serum, 50 μg/mL streptomycin, 50 U/mL penicillin, 10 mM HEPES, pH 7.2, and plated on 96 well, cell culture treated, flat bottomed trays (TPP 96, 4×10^6 cells per 96 well plate; 100 μL/well). Cells are loaded with ^86Rb^+ by incubating the cells overnight in culture medium containing 1 μCi/ml ^86RbCl (Perkin-Elmer) using a Labsystems Multidrop. On the day of the experiment, Culture media is removed and the cells are washed 4 times with 100 μL per well of zero Ca^2+ Earl's Balanced Salt Solution (EBSS)[composition (mM): NaCl (138), KCl (5.4), MgCl2 (1), glucose (10), HEPES (10), pH 7.4 with 10N NaOH]. Cells were preincubated with drug (0.01-30 μM) in low Ca^2+ EBSS, [composition (mM): NaCl (138), CaCl2 (0.25), KCl (5.4), MgCl2 (1), glucose (10), HEPES (10), pH 7.4 with 10N NaOH] for 6 min. ^86Rb^+ efflux is stimulated by exposing cells to regular EBSS [composition (mM): NaCl (138), CaCl2 (1.8), KCl (5.4), MgCl2 (1), glucose (10), HEPES (10), pH 7.4 with 10N NaOH] supplemented with […] ionomycin (Calbiochem), in the continued presence of drug. After a 10 min efflux period, the EBSS/ionomycin solution is removed from the cells and the ^86Rb^+ content determined by Cherenkov counting (Wallac 1450 Microbeta Trilux liquid scintillation and luminescence counter). Cells are then lysed with 100 μL 0.1% SDS solution per well, and the ^86Rb^+ content of the lysate determined. Percent ^86Rb^+ efflux is calculated according to the following formula: (^86Rb^+ content in EBSS/(^86Rb^+ content in EBSS+^86Rb^+ content of the lysate))×100.
With `N=C(NO)C(c1ccccc1)(c1ccccc1)c1ccccc1Cl` [2-(2-Chloro-phenyl)-N-hydroxy-2,2-diphenyl-acetamidine], the pIC50 is above 6.30.

Regarding `N=C(NO)C(c1ccccc1)(c1ccc(F)cc1)c1ccccc1F` (centres unmarked) [Example 1, 2-(2-Fluoro-phenyl)-2-(4-fluoro-phenyl)-N-hydroxy-2-phenyl-acetamidine], the pIC50 is above 6.30.

On to `N=C(NO)C(c1ccccc1)(c1ccc(F)cc1)c1ccc(F)cc1` [Example 2, 2,2-Bis-(4-fluoro-phenyl)-N-hydroxy-2-phenyl-acetamidine], for which the pIC50 is above 6.30.

In the case of `N=C(NO)C(c1ccc(F)cc1)(c1ccc(F)cc1)c1ccc(F)cc1` [Example 3, 2,2,2-Tris-(4-fluoro-phenyl)-N-hydroxy-acetamidine], the pIC50 was above 6.30.

With `CCONC(=N)C(c1ccc(F)cc1)(c1ccc(F)cc1)c1ccc(F)cc1` [Example 4, N-Ethoxy-2,2,2-tris-(4-fluoro-phenyl)-acetamidine], the pIC50 is above 6.30.

`N=C(NO)C(c1ccc(F)cc1)(c1ccc(F)cc1)c1ccccc1Cl` [Example 5, 2-(2-Chloro-phenyl)-2,2-bis-(4-fluoro-phenyl)-N-hydroxy-acetamidine]: the pIC50 is above 6.30.

Regarding `ON=CC(c1ccccc1)(c1ccccc1)c1ccccc1Cl` [Example 6, (2-Chloro-phenyl)-diphenyl-acetaldehyde oxime], the pIC50 was above 6.30.

As to `CON=CC(c1ccccc1)(c1ccccc1)c1ccccc1Cl` [Example 7, (2-Chloro-phenyl)-diphenyl-acetaldehyde O-methyl-oxime], the pIC50 is above 6.30.

Regarding `CONC(=N)C(c1ccccc1)(c1ccc(F)cc1)c1ccc(F)cc1` [Example 8, 2,2-Bis-(4-fluoro-phenyl)-N-methoxy-2-phenyl-acetamidine], the pIC50 is above 6.30.

As for `N=C(NN)C(c1ccccc1)(c1ccc(F)cc1)c1ccc(F)cc1` [Example 9, 2,2-Bis-(4-fluoro-phenyl)-N-amino-2-phenyl-acetamidine], the pIC50 was 6.00 to 6.30.

For `N=C(NN)C(c1ccc(F)cc1)(c1ccc(F)cc1)c1ccc(F)cc1` [Example 10, 2,2,2-Tris-(4-fluoro-phenyl)-N-amino-acetamidine], the pIC50 was 6.00 to 6.30.

Take `N=C(NO)C(c1ccccc1)(c1ccccc1)c1ccccc1` [Example 11, N-Hydroxy-2,2,2-triphenyl-acetamidine]: the pIC50 was 6.00 to 6.30.

`COc1ccc(C(C(=N)NO)(c2ccccc2)c2ccccc2)cc1` [Example 12, N-Hydroxy-2-(4-methoxy-phenyl)-2,2-diphenyl-acetamidine]: the pIC50 is 6.00 to 6.30.

`N=C(NO)C(c1ccccc1)(c1ccccc1)c1cccc(F)n1` [Example 13, 2-(6-Fluoro-pyridin-2-yl)-N-hydroxy-2,2-diphenyl-acetamidine]: the pIC50 is 6.00 to 6.30.

Turning to `N=C(NO)C(c1cccc(F)c1)(c1cccc(F)n1)c1cccc(F)n1` [Example 14, 2-(3-Fluoro-phenyl)-2,2-bis-(6-fluoro-pyridin-2-yl)-N-hydroxy-acetamidine], the pIC50 was 5.00 to 6.00.

For `N=C(N)C(c1cccc(F)n1)(c1cccc(F)n1)c1cccc(F)n1` [Example 15, 2,2,2-Tris-(6-fluoro-pyridin-2-yl)-acetamidine], the pIC50 was 5.00 to 6.00.

Turning to `Cc1nc(C(c2ccccc2)(c2ccccc2)c2cccc(F)n2)no1` [Example 16, 2-Fluoro-6-[(5-methyl-[1,2,4]oxadiazol-3-yl)-diphenyl-methyl]-pyridine], the pIC50 is 5.00 to 6.00.

`Cc1ccc(C(C(=N)N)(c2cccc(F)c2)c2cccc(F)c2)cn1` [Example 17, 2,2-Bis-(3-fluoro-phenyl)-2-(6-methyl-pyridin-3-yl)-acetamidine]: the pIC50 was 5.00 to 6.00.

On to `N=C(N)C(c1ccc(F)cc1)(c1ccc(F)cc1)c1ccc(F)cc1` [Example 18, 2,2,2-Tris-(4-fluoro-phenyl)-acetamidine], for which the pIC50 was 5.00 to 6.00.

With `CONC(=N)C(c1ccc(F)cc1)(c1ccc(F)cc1)c1ccc(F)cc1` [Example 19, 2,2,2-Tris-(4-fluoro-phenyl)-N-methoxy-acetamidine], the pIC50 is 5.00 to 6.00.

Consider `CC(C)ONC(=N)C(c1ccc(F)cc1)(c1ccc(F)cc1)c1ccc(F)cc1` [Example 20, 2,2,2-Tris-(4-fluoro-phenyl)-N-isopropoxy-acetamidine], for which the pIC50 is 5.00 to 6.00.

As to `N=C(N)C(c1ccccc1)(c1ccc(F)cc1)c1ccc(F)cc1` [Example 21, 2,2-Bis-(4-fluoro-phenyl)-2-phenyl-acetamidine], the pIC50 is 5.00 to 6.00.

Regarding `N=C(N)C(c1ccccc1)(c1ccccc1)c1ccccc1` [Example 22, 2,2,2-Triphenyl-acetamidine], the pIC50 is 5.00 to 6.00.

As for `COc1ccc(C(C(=N)NO)(c2ccccc2)c2ccc(OC)cc2)cc1` [Example 23, N-Hydroxy-2,2-bis-(4-methoxy-phenyl)-2-phenyl-acetamidine], the pIC50 is 5.00 to 6.00.

For the compound `N=C(NO)C(c1ccccc1)(c1ccccc1)c1ccc(O)cc1` [Example 24, N-Hydroxy-2-(4-hydroxy-phenyl)-2,2-diphenyl-acetamidine], the pIC50 was 5.00 to 6.00.

Turning to `CC(=NN)C(c1ccccc1)(c1ccccc1)c1ccccc1` [Example 25, (1-Methyl-2,2,2-triphenyl-ethylidene)-hydrazine], the pIC50 was 5.00 to 6.00.

With `CON=C(C)C(c1ccccc1)(c1ccccc1)c1ccccc1` [Example 26, 1,1,1-Triphenyl-propan-2-one O-methyl-oxime], the pIC50 is 5.00 to 6.00.

`COC(=N)C(c1ccc(F)cc1)(c1ccc(F)cc1)c1ccc(F)cc1` [Example 27, 2,2,2-Tris-(4-fluoro-phenyl)-acetimidic acid methyl ester]: the pIC50 is 5.00 to 6.00.

Turning to `COC(=N)C(c1ccccc1)(c1ccc(F)cc1)c1ccc(F)cc1` [Example 28, 2,2-Bis-(4-fluoro-phenyl)-2-phenyl-acetimidic acid methyl ester], the pIC50 is 5.00 to 6.00.

For `CN=C(OC)C(c1ccccc1)(c1ccc(F)cc1)c1ccc(F)cc1` [Example 29, 2,2-Bis-(4-fluoro-phenyl)-N-methyl-2-phenyl-acetimidic acid methyl ester], the pIC50 was 5.00 to 6.00.

Turning to `N=C(NO)C(c1cccc(F)n1)(c1cccc(F)n1)c1cccc(F)n1` [Example 30, 2,2,2-Tris-(6-fluoro-pyridin-2-yl)-N-hydroxy-acetamidine], the pIC50 was below 5.00.

`COc1ccc(C(C(=N)NO)(c2ccc(OC)cc2)c2ccc(OC)cc2)cc1` [Example 31, N-Hydroxy-2,2,2-tris-(4-methoxy-phenyl)-acetamidine]: the pIC50 is below 5.00.

Regarding `N=C(NO)C(c1ccccc1)(c1ccc(O)cc1)c1ccc(O)cc1` [Example 32, N-Hydroxy-2,2-bis-(4-hydroxy-phenyl)-2-phenyl-acetamidine], the pIC50 was below 5.00.

Consider `CCON=C(C)C(c1ccccc1)(c1ccccc1)c1ccccc1` [Example 33, 1,1,1-Triphenyl-propan-2-one O-ethyl-oxime], for which the pIC50 is below 5.00.

`CC(=NO)C(c1ccccc1)(c1ccccc1)c1ccccc1` [Example 34, 1,1,1-Triphenyl-propan-2-one oxime]: the pIC50 is below 5.00.
